Converted amounts (≈) assume the structure as drawn.
Experiments:
Format in all cases: functional
Klebsiella pneumoniae [1] = test: Antibacterial activity against new delhi metallo-beta-lactamase-1 harboring Klebsiella pneumoniae ATCC BAA-2146 after 18 hrs by CLSI broth microdilution method
Escherichia coli [2] = test: Antibacterial activity against extended-spectrum beta-lactamase harboring Escherichia coli 13-1 after 18 hrs by CLSI broth microdilution method
Escherichia coli [3] = test: Antibacterial activity against extended-spectrum beta-lactamase harboring Escherichia coli CDC1001728 after 18 hrs by CLSI broth microdilution method
Klebsiella pneumoniae [4] = test: Antibacterial activity against new delhi metallo-beta-lactamase-1 harboring Klebsiella pneumoniae 13-1 after 18 hrs by CLSI broth microdilution method
Klebsiella pneumoniae [5] = test: Antibacterial activity against carbapenem-resistant Klebsiella pneumoniae 12-11 after 18 hrs by CLSI broth microdilution method
Klebsiella pneumoniae [6] = test: Antibacterial activity against carbapenem-resistant Klebsiella pneumoniae 12-12 after 18 hrs by CLSI broth microdilution method
[7] = tested on: Acinetobacter calcoaceticus; test: Antibacterial activity against new delhi metallo-beta-lactamase-1 harboring Acinetobacter calcoaceticus 13-1 after 18 hrs by CLSI broth microdilution method
[8] = tested on: Acinetobacter calcoaceticus; test: Antibacterial activity against carbapenem-resistant Acinetobacter calcoaceticus 12-6 after 18 hrs by CLSI broth microdilution method
Klebsiella aerogenes = test: Antibacterial activity against carbapenem-resistant Enterobacter aerogenes 11-4 after 18 hrs by CLSI broth microdilution method
Enterobacter cloacae [9] = test: Antibacterial activity against new delhi metallo-beta-lactamase-1 harboring Enterobacter cloacae CDC1000654 after 18 hrs by CLSI broth microdilution method
Enterobacter cloacae [10] = test: Antibacterial activity against new delhi metallo-beta-lactamase-1 harboring Enterobacter cloacae 13-1 after 18 hrs by CLSI broth microdilution method

| Compound | MIC (Escherichia coli [2]; 13-1, 18 h) | MIC (Escherichia coli [3]; CDC1001728, 18 h) | MIC (Klebsiella pneumoniae [4]; 13-1, 18 h) | MIC (Klebsiella pneumoniae [5]; 12-11, 18 h) | MIC (Klebsiella pneumoniae [6]; 12-12, 18 h) | MIC ([7]; 13-1, 18 h) | MIC ([8]; 12-6, 18 h) | MIC (Klebsiella aerogenes; 11-4, 18 h) | MIC (Enterobacter cloacae [9]; CDC1000654, 18 h) | MIC (Enterobacter cloacae [10]; 13-1, 18 h) | other results |
| --- | --- | --- | --- | --- | --- | --- | --- | --- | --- | --- | --- |
| COLISTIN | – | – | – | – | – | – | – | – | – | – | MIC (Klebsiella pneumoniae [1]): 0.5 µg/mL; MIC (Escherichia coli [2]): 0.5 µg/mL; MIC (Escherichia coli [3]): 0.5 µg/mL; MIC (Klebsiella pneumoniae [4]): 0.5 µg/mL; MIC (Klebsiella pneumoniae [5]): 0.5 µg/mL; MIC (Klebsiella pneumoniae [6]): 1 µg/mL; MIC [7]: 0.5 µg/mL; MIC [8]: 0.5 µg/mL; MIC (Klebsiella aerogenes): 0.5 µg/mL; MIC (Enterobacter cloacae [9]): 0.5 µg/mL; MIC (Enterobacter cloacae [10]): 0.5 µg/mL |
| C[C@@H](O)[C@H]1C(=O)N2C(C(=O)O)=C(S[C@@H]3CN[C@H](C(=O)N(C)C)C3)[C@H](C)[C@H]12 [MEROPENEM] | 4 µg/mL (≈ 10.4 µM) | 2 µg/mL (≈ 5.22 µM) | 8 µg/mL (≈ 20.9 µM) | 64 µg/mL (≈ 167 µM) | 32 µg/mL (≈ 83.4 µM) | 64 µg/mL (≈ 167 µM) | 32 µg/mL (≈ 83.4 µM) | 32 µg/mL (≈ 83.4 µM) | 2 µg/mL (≈ 5.22 µM) | 32 µg/mL (≈ 83.4 µM) | – |
| CN(C)c1cc(NC(=O)CNC(C)(C)C)c(O)c2c1C[C@H]1C[C@H]3[C@H](N(C)C)C(O)=C(C(N)=O)C(=O)[C@@]3(O)C(O)=C1C2=O [TIGECYCLINE] | 0.25 µg/mL (≈ 0.427 µM) | 0.5 µg/mL (≈ 0.854 µM) | 0.5 µg/mL (≈ 0.854 µM) | 1 µg/mL (≈ 1.71 µM) | 1 µg/mL (≈ 1.71 µM) | 0.5 µg/mL (≈ 0.854 µM) | 1 µg/mL (≈ 1.71 µM) | 1 µg/mL (≈ 1.71 µM) | 8 µg/mL (≈ 13.7 µM) | 1 µg/mL (≈ 1.71 µM) | MIC (Klebsiella pneumoniae [1]; ATCC BAA-2146, 18 h): 8 µg/mL (≈ 13.7 µM) |
